Data from ChEMBL document CHEMBL1649221, “Novel genetic environment of the carbapenem-hydrolyzing beta-lactamase KPC-2 among Enterobacteriaceae in China” (2009).
≈ marks a conversion by molar mass, not a printed value.

Tests used:
Assay type in all cases: functional
[1] = test system: Klebsiella oxytoca; assay: Antimicrobial activity against Klebsiella oxytoca expressing beta-lactamase KPC-2 by Etest
[2] = test system: Enterobacter cloacae; assay: Antimicrobial activity against Enterobacter cloacae expressing beta-lactamase KPC-2 by Etest
[3] = test system: Klebsiella pneumoniae; assay: Antimicrobial activity against Klebsiella pneumoniae PFGE clone D expressing beta-lactamase KPC-2 by Etest
[4] = test system: Klebsiella pneumoniae; assay: Antimicrobial activity against Klebsiella pneumoniae PFGE clone F expressing beta-lactamase KPC-2 by Etest
[5] = test system: Klebsiella pneumoniae; assay: Antimicrobial activity against Klebsiella pneumoniae PFGE clone C expressing beta-lactamase KPC-2 by Etest
[6] = test system: Klebsiella pneumoniae; assay: Antimicrobial activity against Klebsiella pneumoniae PFGE clone B expressing beta-lactamase KPC-2 by Etest
[7] = test system: Klebsiella pneumoniae; assay: Antimicrobial activity against Klebsiella pneumoniae PFGE clone A expressing beta-lactamase KPC-2 by Etest
[8] = test system: Klebsiella pneumoniae; assay: Antimicrobial activity against Klebsiella pneumoniae PFGE clone E expressing beta-lactamase KPC-2 by Etest
[9] = test system: Klebsiella oxytoca; assay: Antimicrobial activity against Klebsiella oxytoca expressing beta-lactamase KPC-2 by Etest in presence of beta-lactamase inhibitor Tazobactam
[10] = test system: Klebsiella pneumoniae; assay: Antimicrobial activity against Klebsiella pneumoniae PFGE clone D expressing beta-lactamase KPC-2 by Etest in presence of beta-lactamase inhibitor Tazobactam
[11] = test system: Klebsiella pneumoniae; assay: Antimicrobial activity against Klebsiella pneumoniae PFGE clone C expressing beta-lactamase KPC-2 by Etest in presence of beta-lactamase inhibitor Tazobactam
[12] = test system: Klebsiella pneumoniae; assay: Antimicrobial activity against Klebsiella pneumoniae PFGE clone F expressing beta-lactamase KPC-2 by Etest in presence of beta-lactamase inhibitor Tazobactam
[13] = test system: Klebsiella pneumoniae; assay: Antimicrobial activity against Klebsiella pneumoniae PFGE clone E expressing beta-lactamase KPC-2 by Etest in presence of beta-lactamase inhibitor Tazobactam
[14] = test system: Klebsiella pneumoniae; assay: Antimicrobial activity against Klebsiella pneumoniae PFGE clone A expressing beta-lactamase KPC-2 by Etest in presence of beta-lactamase inhibitor Tazobactam
[15] = test system: Klebsiella pneumoniae; assay: Antimicrobial activity against Klebsiella pneumoniae PFGE clone B expressing beta-lactamase KPC-2 by Etest in presence of beta-lactamase inhibitor Tazobactam
[16] = test system: Enterobacter cloacae; assay: Antimicrobial activity against Enterobacter cloacae expressing beta-lactamase KPC-2 by Etest in presence of beta-lactamase inhibitor Tazobactam

Row | MIC [9] [µg/mL] | MIC [10] [µg/mL] | MIC [11] [µg/mL] | MIC [12] [µg/mL] | MIC [13] [µg/mL] | MIC [14] [µg/mL] | MIC [15] [µg/mL] | MIC [16] [µg/mL] | Compound | MIC [1] [µg/mL] | MIC [2] [µg/mL] | MIC [3] [µg/mL] | MIC [4] [µg/mL] | MIC [5] [µg/mL] | MIC [6] [µg/mL] | MIC [7] [µg/mL] | MIC [8] [µg/mL]
1 | – | – | – | – | – | – | – | – | C[C@@H](O)[C@H]1C(=O)N2C(C(=O)O)=C(S[C@@H]3CN[C@H](C(=O)Nc4cccc(C(=O)O)c4)C3)[C@H](C)[C@H]12 | > 16 | > 32 | > 16 | > 32 | > 32 | > 32 | > 32 | > 32
2 | – | – | – | – | – | – | – | – | NCC[C@H](O)C(=O)N[C@@H]1C[C@H](N)[C@@H](O[C@H]2O[C@H](CN)[C@@H](O)[C@H](O)[C@H]2O)[C@H](O)[C@H]1O[C@H]1O[C@H](CO)[C@@H](O)[C@H](N)[C@H]1O [AMIKACIN] | 2 (≈ 3.42 µM) | > 256 | > 256 | 2 (≈ 3.42 µM) | > 1 | > 1 | > 256 | > 1
3 | – | – | – | – | – | – | – | – | CO[C@@]1(NC(=O)Cc2cccs2)C(=O)N2C(C(=O)O)=C(COC(N)=O)CS[C@@H]21 [CEFOXITIN] | > 256 | > 256 | > 64 | > 32 | > 128 | > 128 | > 256 | 32 (≈ 74.9 µM)
4 | – | – | – | – | – | – | – | – | CC(C)(O/N=C(\C(=O)N[C@@H]1C(=O)N2C(C(=O)[O-])=C(C[n+]3ccccc3)CS[C@H]12)c1csc(N)n1)C(=O)O [CEFTAZIDIME] | 128 (≈ 234 µM) | > 256 | > 32 | > 256 | > 256 | > 128 | > 256 | > 32
5 | – | – | – | – | – | – | – | – | C[C@@H](O)[C@H]1C(=O)N2C(C(=O)O)=C(SCCNC=N)C[C@H]12 [IMIPENEM ANHYDROUS] | > 32 | > 32 | > 2 | > 32 | > 32 | > 16 | > 32 | > 16
6 | – | – | – | – | – | – | – | – | C[C@@H](O)[C@H]1C(=O)N2C(C(=O)O)=C(S[C@@H]3CN[C@H](C(=O)N(C)C)C3)[C@H](C)[C@H]12 [MEROPENEM] | > 32 | > 32 | > 2 | > 32 | > 32 | > 32 | > 32 | > 16
7 | > 256 | > 256 | > 256 | > 256 | > 256 | > 256 | > 256 | > 256 | CCN1CCN(C(=O)N[C@@H](C(=O)N[C@@H]2C(=O)N3[C@@H]2SC(C)(C)[C@@H]3C(=O)O)c2ccccc2)C(=O)C1=O [PIPERACILLIN] | – | – | – | – | – | – | – | –
8 | – | – | – | – | – | – | – | – | CN(C)c1cc(NC(=O)CNC(C)(C)C)c(O)c2c1C[C@H]1C[C@H]3[C@H](N(C)C)C(O)=C(C(N)=O)C(=O)[C@@]3(O)C(O)=C1C2=O [TIGECYCLINE] | 2 (≈ 3.41 µM) | 2 (≈ 3.41 µM) | 0.5 (≈ 0.854 µM) | 0.38 (≈ 0.649 µM) | 0.5 (≈ 0.854 µM) | 0.5 (≈ 0.854 µM) | 2 (≈ 3.41 µM) | 1 (≈ 1.71 µM)
9 | – | – | – | – | – | – | – | – | COLISTIN | 1 | 0.5 | 0.5 | 0.5 | 0.5 | 0.5 | 0.25 | 0.5
